The target in this assay is T1, Protein Tat (Human immunodeficiency virus type 1 group M subtype B (isolate HXB2), UniProt P04608).
T1 sequence (P04608 whole entry): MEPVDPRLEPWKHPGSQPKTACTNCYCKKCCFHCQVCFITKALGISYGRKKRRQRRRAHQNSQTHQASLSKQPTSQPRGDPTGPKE
Put plainly: Inhibition of Tat-mediated transcription of viral promoter in 293 T cells transfected with HIV1 tat by luciferase reporter gene assay.

As a reminder, the EC50 is the concentration at which the effect is half-maximal.

The structures appear in SMILES notation.

The compound `Cc1ccc(NCCCN)c([N+](=O)[O-])c1` yielded an EC50 of 10 µM. Consider `CC(Cl)c1ccc(NCCCN)c([N+](=O)[O-])c1` (configuration not stated), for which the EC50 stood at 1 µM. Against the preceding compound, the EC50 is about 10-fold lower.

Source of the values: BindingDB's records for doi:10.1021/jm070014g (2007).
